Assay results reported in PubChem BioAssay (NCI).
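These data come from cells grown in 96-well plates and exposed to compound for 48 hours at five concentrations. Here, GI50 denotes the concentration required for 50% inhibition of growth. At the TGI there is no net growth.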

Legend:
Experiment in all cases: growth of human tumour cells (NCI), 48 h
786-0 renal = test system: 786-0 renal
ACHN renal = test system: ACHN renal
HT29 colon = test system: HT29 colon
NCI-H460 lung = test system: NCI-H460 lung
SK-MEL-28 melanoma = test system: SK-MEL-28 melanoma
SW-620 colon = test system: SW-620 colon
UACC-62 melanoma = test system: UACC-62 melanoma
HS 578T breast = test system: HS 578T breast
HL-60(TB) leukemia = test system: HL-60(TB) leukemia
HOP-92 NSCLC = test system: HOP-92 NSCLC

Q: Which results are given for `COc1cc2c(cc1OC)C(C(=O)O)C(c1ccccc1)N(C)C2=O` (stereo unspecified)?
A: TGI (786-0 renal): > 100 µM; TGI (ACHN renal): > 100 µM; TGI (HT29 colon): > 100 µM; TGI (NCI-H460 lung): > 100 µM; TGI (SK-MEL-28 melanoma): > 100 µM; TGI (SW-620 colon): > 100 µM; TGI (UACC-62 melanoma): > 100 µM

Q: With `N#C/C(=C/C=C/c1ccco1)C(N)=O` as the compound, how does the TGI (786-0 renal) read?
A: > 10 µM

Q: And the TGI (ACHN renal)?
A: > 10 µM

Q: And the TGI (HS 578T breast)?
A: > 10 µM

Q: And the TGI (HT29 colon)?
A: > 10 µM

Q: What about the TGI (NCI-H460 lung) of the same compound?
A: > 10 µM

Q: What about the TGI (SK-MEL-28 melanoma) of the same compound?
A: > 10 µM

Q: What about the TGI (SW-620 colon) of the same compound?
A: > 10 µM

Q: For `CC(C)/C=C1\CCC(CN2CCOCC2)C1=O` (stereo unspecified), which TGI (786-0 renal) is on record?
A: 8.9 µM

Q: What about the TGI (ACHN renal) of the same compound?
A: 32.3 µM

Q: And the TGI (HL-60(TB) leukemia)?
A: 5.58 µM

Q: What about the TGI (HOP-92 NSCLC) of the same compound?
A: 38.9 µM

Q: And the TGI (HT29 colon)?
A: 15.4 µM

Q: And the TGI (NCI-H460 lung)?
A: > 60.7 µM

Q: What about the TGI (SK-MEL-28 melanoma) of the same compound?
A: 32.2 µM

Q: What about the TGI (SW-620 colon) of the same compound?
A: 8.08 µM

Q: What about the TGI (UACC-62 melanoma) of the same compound?
A: 36.3 µM

Q: How did the TGI (786-0 renal) turn out when `O=C(O)C(Cc1cnc[nH]1)N1C(=O)c2ccccc2C1=O` (stereo unspecified) was run?
A: > 100 µM

Q: And the TGI (ACHN renal)?
A: > 100 µM

Q: What about the TGI (HOP-92 NSCLC) of the same compound?
A: > 100 µM

Q: And the TGI (HS 578T breast)?
A: > 100 µM

Q: What about the TGI (HT29 colon) of the same compound?
A: > 100 µM

Q: What about the TGI (NCI-H460 lung) of the same compound?
A: > 100 µM

Q: And the TGI (SK-MEL-28 melanoma)?
A: > 100 µM

Q: And the TGI (SW-620 colon)?
A: > 100 µM

Q: What about the TGI (UACC-62 melanoma) of the same compound?
A: > 100 µM

Q: With `O=C1C2C(C(=O)N1c1ccccc1)C1c3ccccc3C2C2C(=O)N(c3ccccc3)C(=O)C21` (stereo unspecified) as the compound, how does the TGI (786-0 renal) read?
A: > 100 µM

Q: And the TGI (ACHN renal)?
A: > 100 µM

Q: And the TGI (HL-60(TB) leukemia)?
A: 44.9 µM

Q: What about the TGI (HOP-92 NSCLC) of the same compound?
A: > 100 µM

Q: And the TGI (HT29 colon)?
A: > 100 µM

Q: What about the TGI (NCI-H460 lung) of the same compound?
A: > 100 µM

Q: And the TGI (SK-MEL-28 melanoma)?
A: > 100 µM

Q: And the TGI (SW-620 colon)?
A: > 100 µM

Q: And the TGI (UACC-62 melanoma)?
A: > 100 µM

Q: With `Cc1ccc(/C=C/c2c(C(=O)/C=C/c3ccccc3)c(C)nc3ccccc23)cc1` as the compound, how does the GI50 (786-0 renal) read?
A: 1.63 µM

Q: What about the TGI (786-0 renal) of the same compound?
A: 3.05 µM

Q: What about the GI50 (ACHN renal) of the same compound?
A: 1.59 µM

Q: And the TGI (ACHN renal)?
A: 2.93 µM

Q: What about the GI50 (HL-60(TB) leukemia) of the same compound?
A: 2.04 µM

Q: And the TGI (HL-60(TB) leukemia)?
A: 4.89 µM

Q: What about the GI50 (HOP-92 NSCLC) of the same compound?
A: 1.52 µM

Q: What about the TGI (HOP-92 NSCLC) of the same compound?
A: 4.34 µM

Q: What about the GI50 (HT29 colon) of the same compound?
A: 1.63 µM

Q: And the TGI (HT29 colon)?
A: 9.5 µM

Q: And the GI50 (NCI-H460 lung)?
A: 1.37 µM

Q: What about the TGI (NCI-H460 lung) of the same compound?
A: 2.99 µM

Q: What about the GI50 (SK-MEL-28 melanoma) of the same compound?
A: 1.77 µM

Q: And the TGI (SK-MEL-28 melanoma)?
A: 3.27 µM

Q: And the GI50 (SW-620 colon)?
A: 1.58 µM

Q: And the TGI (SW-620 colon)?
A: 4.61 µM

Q: What about the GI50 (UACC-62 melanoma) of the same compound?
A: 1.58 µM

Q: And the TGI (UACC-62 melanoma)?
A: 3.16 µM

Q: Which results are given for `Cc1cc(N(CCC#N)S(=O)(=O)c2ccccc2)ccc1/C=C1\N=C(c2ccc(Cl)cc2)OC1=O`?
A: TGI (786-0 renal): > 100 µM; TGI (ACHN renal): > 100 µM; TGI (HL-60(TB) leukemia): > 100 µM; TGI (HOP-92 NSCLC): > 100 µM; TGI (HT29 colon): > 100 µM; TGI (NCI-H460 lung): > 100 µM; TGI (SK-MEL-28 melanoma): > 100 µM; TGI (SW-620 colon): > 100 µM; TGI (UACC-62 melanoma): > 100 µM

Q: Which TGI (786-0 renal) does the source give for `CCCn1c(SCCSc2c3ccccc3c(-c3nc(F)nc(F)n3)n2CCC)c2ccccc2c1-c1nc(F)nc(F)n1` here?
A: > 100 µM

Q: And the TGI (ACHN renal)?
A: > 100 µM

Q: What about the TGI (HL-60(TB) leukemia) of the same compound?
A: > 100 µM

Q: And the TGI (HOP-92 NSCLC)?
A: > 100 µM

Q: And the TGI (HT29 colon)?
A: > 100 µM

Q: And the TGI (NCI-H460 lung)?
A: > 100 µM

Q: What about the TGI (SK-MEL-28 melanoma) of the same compound?
A: > 100 µM

Q: What about the TGI (SW-620 colon) of the same compound?
A: 32.6 µM

Q: And the TGI (UACC-62 melanoma)?
A: > 100 µM

Q: `COc1cc2c(cc1OC)-c1ncc3c(OC)ccc(OC)c3c1C2` was tested. Which GI50 (786-0 renal) did it give?
A: 49.2 µM

Q: What about the TGI (786-0 renal) of the same compound?
A: > 100 µM

Q: And the GI50 (ACHN renal)?
A: 24 µM

Q: What about the TGI (ACHN renal) of the same compound?
A: > 100 µM

Q: And the GI50 (HOP-92 NSCLC)?
A: 39.4 µM

Q: What about the TGI (HOP-92 NSCLC) of the same compound?
A: > 100 µM

Q: What about the GI50 (HS 578T breast) of the same compound?
A: 8.05 µM

Q: What about the TGI (HS 578T breast) of the same compound?
A: 42.4 µM

Q: What about the GI50 (NCI-H460 lung) of the same compound?
A: 20.9 µM

Q: And the TGI (NCI-H460 lung)?
A: > 100 µM

Q: What about the GI50 (SK-MEL-28 melanoma) of the same compound?
A: > 100 µM

Q: And the TGI (SK-MEL-28 melanoma)?
A: > 100 µM

Q: What about the GI50 (SW-620 colon) of the same compound?
A: 35.1 µM

Q: What about the TGI (SW-620 colon) of the same compound?
A: > 100 µM

Q: What about the GI50 (UACC-62 melanoma) of the same compound?
A: 18 µM

Q: And the TGI (UACC-62 melanoma)?
A: > 100 µM

Q: What does the source list for `Cc1ccc(S(=O)(=O)N/N=C(\c2nc3ccc(Cl)cc3[nH]c2=O)C(O)c2ccco2)cc1` (stereo unspecified)?
A: TGI (786-0 renal): > 100 µM; TGI (ACHN renal): > 100 µM; TGI (HL-60(TB) leukemia): > 100 µM; TGI (HOP-92 NSCLC): > 100 µM; TGI (HT29 colon): > 100 µM; TGI (NCI-H460 lung): > 100 µM; TGI (SK-MEL-28 melanoma): > 100 µM; TGI (SW-620 colon): > 100 µM; TGI (UACC-62 melanoma): > 100 µM

Q: How did the TGI (786-0 renal) turn out when `Cn1cnc(N)c(N=O)c1=O` was run?
A: > 10 µM

Q: What about the TGI (ACHN renal) of the same compound?
A: > 10 µM

Q: And the TGI (HL-60(TB) leukemia)?
A: > 10 µM

Q: And the TGI (HS 578T breast)?
A: > 10 µM

Q: And the TGI (HT29 colon)?
A: > 10 µM

Q: And the TGI (NCI-H460 lung)?
A: > 10 µM

Q: And the TGI (SK-MEL-28 melanoma)?
A: > 10 µM

Q: And the TGI (SW-620 colon)?
A: > 10 µM

Q: What about the TGI (UACC-62 melanoma) of the same compound?
A: > 10 µM
